Legend:
Assay type in all cases: cell-based
C/EBPα = assay: Western blotting of C/EBPα protein expression in differentiating 3T3-L1 cells; details: MDI-differentiated 3T3-L1 cells; for C/EBPα expression level: 40 μM, FIG. 5 comparison
Description: (§1) In Experimental Example 4, it was confirmed by Western blotting that gingerenone A affects important transcriptional factors, C/EBPα and PPARγ, and FAS protein expressed by a transcriptional factor thereof, expressed upon fat cell differentiation (B. L. Upham et al., Carcinogenesis. 18:37-42, 1997).
(§2) Post-confluent 3T3-L1 cells were cultured in DMEM supplemented with MDI, 10% FBS and 10 ml/L of antibiotic-antimycotic agent. In this media, we additionally treated with or without gingerenone A (10, 20 and 40 μM) for 2 days. For the next 2 to 4 days, the cells were further cultured. Here, the culture media was prepared by adding gingerenone A at concentrations of 10, 20 and 40 μM to DMEM media comprising insulin, 10% FBS and 1% antibiotic-antimycotic agent. For the next 4 to 6 days, the cells were further cultured in media comprising 10% FBS, 1% antibiotic-antimycotic agent and gingerenone A. Here, gingerenone A was added at concentrations of 10, 20 and 40 μM to the DMEM media. To extract protein from the cultured cells, after washing two times with cold PBS (phosphate buffered saline), the cells were lysed with a protein extraction solution. The protein extraction solution was RIPA buffer (50 mM, Tris pH 8.0, 150 mM NaCl, 1% NP-40, 5 mM EDTA and 1 mM PMSF) comprising 0.5% protease inhibitor (SIGMA-ALDRICH) and 0.5% phosphatase inhibitor (250 mM sodium fluoride, 5 mM sodium orthovanadate, 50 mM sodium pyrophosphate and 50 mM glycerophosphate). The cell lysates were centrifuged at 4° C. for 20 minutes at a rate of 12000 rpm. Supernatant formed by centrifugation was transferred to new 1.5 mL Eppendorf tubes. The protein content of the supernatants was determined using a DC assay kit (Bio-Rad Corp., Richmond, Calif., USA). The DC assay kit uses BSA (bovine serum albumin) as a standard solution. After mixing 20 to 50 μg of the protein with a sample buffer comprising bromophenol blue and denaturing the protein at 100° C. for 5 minutes, the denatured proteins were separated on a 12% SDS-polyacrylamide gel. […]

[1] = tested on: FAS (fatty acid synthase); assay: Western blotting of FAS protein expression in differentiating 3T3-L1 cells; details: MDI-differentiated 3T3-L1 cells; for FAS expression level: 40 μM, FIG. 5 comparison
Description: as §1, §2

3T3-L1 cells [2] = assay: Oil red O staining of fat accumulation in MDI-differentiated 3T3-L1 cells; details: 10, 20 and 40 μM, 6 days, dependent on concentration
Description: In Experimental Example 3, to analyze the suppressive effects of gingerenone A on fat accumulation, oil red 0 staining was performed after inducing differentiation of the pre-adipocytes (K. Tobe et al., FEBS Lett, 215(2):345-9, 1987).
The 3T3-L1 cells (ATCC, Gaithersburg, Md.), representing pre-adipocytes, were plated into 24-well plates. The plated 3T3-L1 cell line was cultured in DMEM (Dulbecco-modified Eagle medium, WELGENE) with 10% FBS (fetal bovine serum) and 10 ml/L of antibiotic-antimycotic agent at 37° C. in a 5% CO2 incubator (MCO-15AC, SANYO E&E, Europe) until the cells reached 100% confluence.
When the 3T3-L1 cells reached 100% confluence, the cells were further cultured for 2 days in DMEM medium, in which MDI was added, with 10 ml/L of antibiotic-antimycotic agent and 10% fetal bovine serum (FBS). The media was replaced with DMEM containing 10 ml/L of insulin, 10% FBS and 10 ml/L of antibiotic-antimycotic agent for another 2 days. Thereafter, the media was changed to DMEM medium only comprising 10 ml/L of antibiotic-antimycotic agent and 10% FBS. […]
When 3T3-L1 cells were differentiated in the presence of MDI, gingerenone A was added at concentrations of 10, 20 and 40 μM to the cell culture media every third day from the day of MDI addition. […] The concentration was measured at a wavelength of 515 nm using an absorbance reader.

3T3-L1 cells [3] = assay: MTT analysis of viability of 3T3-L1 cells
Description: In Experimental Example 2, in order to measure the toxicity of 3T3-L1 cells in the presence of varying concentrations of gingerenone A, MTT3-(4,5-Dimethylthiazol-2-yl)-2,5diphenyltetrazolium bromide) analysis was conducted.
First, after plating 3T3-L1 cells into 96 well plates, the cells were cultured until the 3T3-L1 cells became confluent. Thereafter, the 3T3-L1 cells were treated with gingerenone A at concentrations of 10, 20 and 40 μM. After culturing for 24 and 48 hours, MTT was added to the cultured cells to a concentration of 0.5 mg/ml. The treated cells were cultured for 4 hours at 37° C. in a 5% CO2 incubator. Thereafter, the media was removed and 200 μl of DMSO (dimethylsulfoxide) was added to measure absorbance at a wavelength of 570 nm using an absorbance reader (Versa Max, Molecular Device, California, USA). Cell viability was determined as a percentage with respect to a control treated with only MDI (0.5 mM of isobutyl-methylxanthine, 1 μM of dexamethasone and 10 μg/ml of insulin).

PPARγ = assay: Western blotting of PPARγ protein expression in differentiating 3T3-L1 cells; details: MDI-differentiated 3T3-L1 cells
Description: as §1
Post-confluent 3T3-L1 cells were cultured in DMEM supplemented with MDI, 10% FBS and 10 ml/L of antibiotic-antimycotic agent. In this media, we additionally treated with or without gingerenone A (10, 20 and 40 μM) for 2 days. For the next 2 to 4 days, the cells were further cultured. Here, the culture media was prepared by adding gingerenone A at concentrations of 10, 20 and 40 μM to DMEM media comprising insulin, 10% FBS and 1% antibiotic-antimycotic agent. For the next 4 to 6 days, the cells were further cultured in media comprising 10% FBS, 1% antibiotic-antimycotic agent and gingerenone A. Here, gingerenone A was added at concentrations of 10, 20 and 40 μM to the DMEM media. To extract protein from the cultured cells, after washing two times with cold PBS (phosphate buffered saline), the cells were lysed with a protein extraction solution. […] The protein content of the supernatants was determined using a DC assay kit (Bio-Rad Corp., Richmond, Calif., USA). […]

Question: With `CCCCC[C@H](O)CC(=O)CCc1ccc(O)c(OC)c1` [gingerol, reference compound] as the compound, how does the C/EBPα expression level (C/EBPα) read?
Answer: slightly reduced

Question: And the FAS expression level [1]?
Answer: slightly reduced

Question: How did the C/EBPα expression level (C/EBPα) turn out when `COc1cc(CC/C=C/C(=O)CCc2ccc(O)c(OC)c2)ccc1O` [gingerenone A] was run?
Answer: considerably reduced

Question: And the “C/EBPα protein expression level” value (C/EBPα; 10, 20 and 40 μM, FIG. 4)?
Answer: reduced

Question: And the FAS expression level [1]?
Answer: considerably reduced

Question: And the “FAS protein expression level” value ([1]; 10, 20 and 40 μM, FIG. 4)?
Answer: reduced

Question: What about the “cellular fat content (oil red O staining)” value (3T3-L1 cells [2]) of the same compound?
Answer: decreased

Question: What about the “cytotoxicity (viability of 3T3-L1 cells)” value (3T3-L1 cells [3]; 40 μM, 24 and 48 hours after treatment) of the same compound?
Answer: not observed

Question: What about the “cytotoxicity (MTT analysis)” value (3T3-L1 cells [3]; 3T3-L1 pre-adipocytes treated with 10, 20 and 40 μM) of the same compound?
Answer: not observed

Question: What about the PPARγ expression level (PPARγ; 40 μM, FIG. 5 comparison) of the same compound?
Answer: considerably reduced

Question: And the “PPARγ protein expression level” value (PPARγ; 10, 20 and 40 μM, FIG. 4)?
Answer: reduced

— patent publication US20160074338A1, “FOOD COMPOSITION FOR PREVENTING OBESITY, PHARMACEUTICAL COMPOSITION FOR TREATING OBESITY, AND ANIMAL MEDICINE FOR TREATING OBESITY, CONTAINING GINGERNONE A” (SNU R&DB Foundation, priority 2011, published 2016)
